Measurements as given in the CheMixHub drug solubility set.

Assay: xn = mol fraction of the nth substance listed, in the solute-free solvent

NCCS(=O)(=O)O + O + CC(O)CO
solubility (g/100 g solution)
Conditions	298.15 K	303.15 K	308.15 K	313.15 K	318.15 K
x2 = 0.8085	0.283	0.373	0.413	0.484	0.694
x2 = 0.8636	0.605	0.646	0.75	0.914	1.26
x2 = 0.9079	0.929	1	1.36	1.64	2.12
x2 = 0.9441	1.72	2.03	2.51	3.03	3.67
x2 = 0.9744	3.42	4.2	5.01	5.6	6.88

NC(Cc1c[nH]c2ccccc12)C(=O)O (stereo not given) + O + CO
solubility (g/100 g solution)
Conditions	288.15 K	293.15 K	298.15 K	303.15 K	308.15 K
x2 = 0.1908	0.556	0.608	0.684	0.776	0.875
x2 = 0.3955	0.677	0.741	0.831	0.94	1.06
x2 = 0.595	0.827	0.902	1.01	1.14	1.28
x2 = 0.7962	1.02	1.11	1.23	1.38	1.56

NCCS(=O)(=O)O + O + OCCO
solubility (g/100 g solution)
Conditions	298.15 K	303.15 K	308.15 K	313.15 K	318.15 K
x2 = 0.775	1.2	1.44	1.68	2.16	2.27
x2 = 0.8378	1.63	1.92	2.28	2.83	3.17
x2 = 0.8893	2.24	2.94	3.18	3.64	4.08
x2 = 0.9323	3.39	4.12	4.67	5.48	6.21
x2 = 0.9688	5.08	6.22	7.45	8.66	10.1
